# In ChEMBL document CHEMBL1137160, “Structure-activity relationships of methylene or terminal side chain modified retinoids on the differentiation and cell death signaling in NB4 promyelocytic leukemia cells” (2004):
# Experiments:
# NB-4 [1] = test: Ability to induce maturation and cell death of NB4 cells labelled with V-FITC on day 6; type: functional, Homo sapiens; design: concentration or dose not given beside the values
# [2] = molecular target: T1, Retinoic acid receptor RXR-beta (Homo sapiens) (UniProt P28702); test: Agonist activity for Retinoid X receptor beta as photons in presence and absence of ligand; type: functional; design: unit not given here
# T1 sequence (whole entry): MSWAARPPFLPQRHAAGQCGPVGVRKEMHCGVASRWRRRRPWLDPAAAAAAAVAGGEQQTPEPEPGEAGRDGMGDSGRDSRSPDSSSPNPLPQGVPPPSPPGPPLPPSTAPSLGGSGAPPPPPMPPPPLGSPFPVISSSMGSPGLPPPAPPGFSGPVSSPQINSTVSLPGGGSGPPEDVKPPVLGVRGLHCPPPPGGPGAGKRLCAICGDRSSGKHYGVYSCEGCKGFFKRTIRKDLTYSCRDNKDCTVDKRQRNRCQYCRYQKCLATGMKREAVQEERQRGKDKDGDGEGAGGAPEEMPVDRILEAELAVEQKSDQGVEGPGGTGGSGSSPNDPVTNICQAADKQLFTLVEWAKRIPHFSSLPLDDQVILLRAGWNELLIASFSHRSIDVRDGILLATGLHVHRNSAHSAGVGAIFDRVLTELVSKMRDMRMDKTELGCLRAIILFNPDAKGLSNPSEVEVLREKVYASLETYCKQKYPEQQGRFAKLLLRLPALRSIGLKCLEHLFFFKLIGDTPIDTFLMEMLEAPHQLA
# [3] = molecular target: T2, Retinoic acid receptor alpha (Homo sapiens) (UniProt P10276); test: Agonist activity for Retinoic acid receptor alpha as photons in presence and absence of ligand; type: functional; design: unit not given here
# T2 sequence (whole entry): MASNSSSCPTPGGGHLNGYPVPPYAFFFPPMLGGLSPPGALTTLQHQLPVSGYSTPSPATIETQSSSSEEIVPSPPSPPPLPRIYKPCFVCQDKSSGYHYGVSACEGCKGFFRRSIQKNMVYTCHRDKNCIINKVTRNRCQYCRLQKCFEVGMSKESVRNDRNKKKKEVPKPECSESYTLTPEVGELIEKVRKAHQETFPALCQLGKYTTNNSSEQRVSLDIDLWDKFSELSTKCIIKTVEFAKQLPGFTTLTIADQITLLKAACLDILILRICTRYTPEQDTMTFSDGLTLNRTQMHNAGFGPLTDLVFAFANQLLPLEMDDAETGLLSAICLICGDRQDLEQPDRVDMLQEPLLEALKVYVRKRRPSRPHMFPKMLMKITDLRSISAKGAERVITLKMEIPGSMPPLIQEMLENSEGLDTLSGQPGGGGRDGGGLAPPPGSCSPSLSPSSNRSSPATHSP
# NB-4 [4] = test: Evaluated for mean value of the fluorescence intensity of CD11c-PE expressing NB4 cells at day 3; type: functional, Homo sapiens
# [5] = molecular target: T3, Retinoic acid receptor beta (Homo sapiens) (UniProt P10826); test: Agonist activity for Retinoic acid receptor beta as photons in presence and absence of ligand; type: functional; design: unit not given here
# T3 sequence (whole entry): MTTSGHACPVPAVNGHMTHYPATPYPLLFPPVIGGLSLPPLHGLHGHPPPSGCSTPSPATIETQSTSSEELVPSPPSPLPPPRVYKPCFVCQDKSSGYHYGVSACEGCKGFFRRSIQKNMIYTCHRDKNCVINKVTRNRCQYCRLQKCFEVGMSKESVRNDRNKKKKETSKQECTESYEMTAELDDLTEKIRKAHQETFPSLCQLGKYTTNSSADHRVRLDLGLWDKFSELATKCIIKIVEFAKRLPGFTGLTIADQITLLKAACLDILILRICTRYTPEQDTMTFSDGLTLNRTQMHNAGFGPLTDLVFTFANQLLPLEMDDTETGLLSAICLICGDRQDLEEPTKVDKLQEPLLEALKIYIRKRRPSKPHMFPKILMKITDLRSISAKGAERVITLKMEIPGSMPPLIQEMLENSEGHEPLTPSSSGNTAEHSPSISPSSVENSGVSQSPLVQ
# [6] = molecular target: T4, Retinoic acid receptor gamma (Homo sapiens) (UniProt P13631); test: Agonist activity for Retinoic acid receptor gamma as photons in presence and absence of ligand; type: functional; design: concentration or dose not given beside the values
# T4 sequence (whole entry): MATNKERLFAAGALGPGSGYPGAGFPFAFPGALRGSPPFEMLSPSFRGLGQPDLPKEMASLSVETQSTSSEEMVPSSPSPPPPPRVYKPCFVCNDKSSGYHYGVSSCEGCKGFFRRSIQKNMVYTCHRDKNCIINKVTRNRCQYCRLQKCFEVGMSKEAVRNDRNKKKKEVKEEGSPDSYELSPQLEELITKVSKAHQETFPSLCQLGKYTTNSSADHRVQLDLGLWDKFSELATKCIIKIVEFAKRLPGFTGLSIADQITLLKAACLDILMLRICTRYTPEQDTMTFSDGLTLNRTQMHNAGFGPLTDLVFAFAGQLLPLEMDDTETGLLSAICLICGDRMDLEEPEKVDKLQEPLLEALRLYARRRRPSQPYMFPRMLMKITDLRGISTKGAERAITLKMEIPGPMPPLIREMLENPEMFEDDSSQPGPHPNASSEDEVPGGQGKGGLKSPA
# NB-4 [7] = test: Evaluated for mean value of the fluorescence intensity of CD11c-PE expressing NB4 cells at day 6; type: functional, Homo sapiens
# NB-4 [8] = test: Ability to induce maturation and cell death of NB4 cells labelled with V-FITC on day 3; type: functional, Homo sapiens; design: concentration or dose not given beside the values
smiles,measurement,setting,value
C=C(/C=C/C1=C(C)CCCC1(C)C)C/C=C/C(C)=C\C(=O)O,Activity,NB-4 [1],14%
same,Activity,[2],2.1
same,Activity,[3],11.8
same,Activity,NB-4 [4],38
same,Activity,[5],14.5
same,Activity,[6],10.9
same,Activity,NB-4 [7],43
same,Activity,NB-4 [8],11%
CC1=C(/C=C/C(C)=C/C=C(\C#N)C(C)=C(C(=O)O)C(=O)O)C(C)(C)CCC1,Activity,NB-4 [1],12%
same,Activity,[2],3
same,Activity,[3],22.2
same,Activity,NB-4 [4],77
same,Activity,[5],17.9
same,Activity,[6],11.7
same,Activity,NB-4 [7],64
same,Activity,NB-4 [8],11%
CC1=C(/C=C/C(C)=C\C=C\C(C)=C\C(=O)O)C(C)(C)CCC1,Activity,[2],14.5
CC1=C(/C=C/C(C)=C/C=C(C#N)/C(C)=C\C(=O)O)C(C)(C)CCC1,Activity,NB-4 [1],20%
same,Activity,[2],2.1
same,Activity,[3],23.5
same,Activity,NB-4 [4],88
same,Activity,[5],14.6
same,Activity,[6],8.9
same,Activity,NB-4 [7],126
same,Activity,NB-4 [8],9%
COC(=O)\C=C(C)/C(C#N)=C/C=C(C)/C=C/C1=C(C)CCCC1(C)C,Activity,NB-4 [1],8%
same,Activity,[2],1.6
same,Activity,[3],1.3
same,Activity,NB-4 [4],10
same,Activity,[5],6.7
same,Activity,[6],3
same,Activity,NB-4 [7],10
same,Activity,NB-4 [8],13%
CC1=C(/C=C/C(C)=C/C=C/C(C)=C/C(=O)O)C(C)(C)CCC1 [TRETINOIN],Activity,NB-4 [1],50%
same,Activity,NB-4 [4],110
same,Activity,NB-4 [7],197
same,Activity,NB-4 [8],14%
C/C(=C\c1ccc(C(=O)O)cc1)c1ccc2c(c1)C(C)(C)CCC2(C)C,Activity,NB-4 [1],35%
same,Activity,NB-4 [4],106
same,Activity,NB-4 [7],170
same,Activity,NB-4 [8],14%
C=C(/C=C/C1=C(C)CCCC1(C)C)C/C=C/C=C\C(=O)O,Activity,NB-4 [1],12%
same,Activity,[2],2
same,Activity,[3],7.1
same,Activity,NB-4 [4],33
same,Activity,[5],13.1
same,Activity,[6],7.9
same,Activity,NB-4 [7],35
same,Activity,NB-4 [8],10%
CC1(C)CCC(C)(C)c2cc(C3(c4ccc(C(=O)O)cc4)OCCO3)ccc21,Activity,NB-4 [1],11%
same,Activity,NB-4 [4],22
same,Activity,NB-4 [7],23
same,Activity,NB-4 [8],11%
C=C(/C=C/C1=C(C)CCCC1(C)C)C/C=C/C(C)=C/C(=O)O,Activity,NB-4 [1],56%
same,Activity,[2],5.8
same,Activity,[3],7
same,Activity,NB-4 [4],117
same,Activity,[5],7.2
same,Activity,[6],3.3
same,Activity,NB-4 [7],163
same,Activity,NB-4 [8],18%
C=C(/C=C/c1ccccc1)C/C=C/C(C)=C\C(=O)O,Activity,NB-4 [1],8%
same,Activity,[2],13.5
same,Activity,[3],4.9
same,Activity,NB-4 [4],15
same,Activity,[5],4
same,Activity,[6],4.6
same,Activity,NB-4 [7],12
same,Activity,NB-4 [8],9%
